Measured values taken from EP0619297B1, “Fungicides for the control of take-all desease of plants” (MONSANTO COMPANY, priority 1993, dated 1994).
Values after ≈ are worked out from the molar mass of the structure shown. Read-outs that look alike come from different tables or passages of the source.

Tests used:
[1] = tested on: Gaeumannomyces graminis var. tritici (Ggt); experiment: In vitro assay: mycelial growth on minimal media agar plates (Percent Inhibition; IC50); format: cell-based; conditions: for inhibition at 0.1 ppm: read-out: In vitro(ppm) 0.1, Percent Inhibition; for inhibition at 1 ppm: read-out: In vitro(ppm) 1, Percent Inhibition; for inhibition at 10 ppm: read-out: In vitro(ppm) 10, Percent Inhibition; for IC50: interpolated from percent inhibition at 1, 0.1, 0.01, 0.001 and 0.0001 ppm
Protocol: The test compounds (0.25 mL of an appropriate stock solution in acetone) are incorporated into 25 mL minimal media agar [prepared by autoclaving a solution of 17.5 g Czapek Dox broth (Difco), 7.5 g purified agar or Bacto-agar (Difco), and 500 mL distilled/deionized water, and then adding 50 µL of 1 mg/mL thiamine hydrochloride and 50 µL of 1 mg/mL biotin in 5% ethanol] and plates are prepared.
Each plate is inoculated by placing in a triangular shape three 4-mm plugs of Gaeumannomyces graminis var. tritici (Ggt) grown on the minimal media agar described above. The plates are incubated in the dark at 19 - 20 °C for 4 to 5 days. The growth of the fungus is measured as the diameter of the mycelial growth. The result is expressed as Percent Inhibition, calculated as [1 - [(mm growth on treated plate - 4)/(mm growth on control plate - 4)]] x 100.
To determine IC5O values, an in vitro assay was run on each compound at the concentrations of 1, 0.1, 0.01, 0.001, and 0.0001 ppm. The percent inhibition was calculated for each concentration using the equation described in the in vitro assay under the section on Biological Assays. Using the two ordered pairs of (concentration, % inhibition) that bracket 50% inhibition of fungal growth, the concentration for 50% inhibition is calculated from the following equation. IC50 = [(50-I2 )C1 + (I1 -50)C2 ]/(I1 -I2 ), [formula] where C1 = 10C2.

Ggt = experiment: In vivo assay: control of Ggt on wheat in 3-inch pots with infested soil, rated after four weeks;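 on In vivo(ppm) 0.1, percent disease control: rate is mg active ingredient per pot in 3 mL solution not ppm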;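 on In vivo(ppm) 0.5, percent disease control: rate is mg active ingredient per pot in 3 mL solution not ppm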; set-up: species or system Gaeumannomyces graminis var. tritici; conditions: Gaeumannomyces graminis, 672 h; for pest or weed control at 0.02 mg/pot: read-out: In vivo(ppm) 0.02mg/pot, percent disease control; for pest or weed control at 0.1 mg/pot: read-out: In vivo(ppm) 0.1, percent disease control; for pest or weed control at 0.5 mg/pot: read-out: In vivo(ppm) 0.5, percent disease control
Protocol: Compounds are tested for control of Ggt on 'Bergen' or 'Anza' varieties of wheat grown in 3-inch square pots containing soil infested with Ggt. The infestation is accomplished by mixing the soil with an inoculum prepared by growing Ggt on 1/4 strength potato dextrose agar (4.875 g potato dextrose agar, 5.0 g Bacto agar, 500 mL distilled, deionized water) in plates and using plugs from the plates to infest sterile oats (400 cc whole oats, 350 mL deionized water, autoclaved). After a one-month incubation period at room temperature, the oats are dried and mixed with the soil at 4% v/v. Four wheat seeds are placed on top of the soil in each pot. […] Five pots are used for each treatment level and the controls, which are untreated, inoculated and non-inoculated pots. After one hour drying time, the seeds are covered with more of the appropriate soil and a layer of vermiculite. The pots are placed in a growth chamber and watered each day. After four weeks, each pot is evaluated for evidence of disease by examination of the seminal roots of each plant under a dissecting microscope. A 0 to 5 rating scale having the following meanings is used: • 0 = no runner hyphae or lesions present • 1 = runner hyphae and a few small lesions present on <10% of root system • 2 = runner hyphae and small lesions present on 10 - 25% of root system • 3 = runner hyphae and lesions present on 25 - 50% of root system • 4 = runner hyphae and many, large, coalescing lesions on >50% of root system • 5 = root system and culm completely inundated with lesions and runner hyphae
From each set of five replicates a high or low score may be eliminated to assure the best representative scores are used to calculate a replicate mean by averaging the remaining scores. This mean score is then compared to the untreated control score and a percent disease control is calculated.

[2] = 0.1 ppm in agar, 19 - 20 °C, 4 to 5 days
[3] = 1 ppm in agar, 19 - 20 °C, 4 to 5 days
[4] = 10 ppm in agar, 19 - 20 °C, 4 to 5 days
[5] = rate 0.02mg/pot, wheat, soil infested with Ggt, after four weeks
[6] = rate 0.1 (head prints ppm, head line ends mg/pot), wheat, soil infested with Ggt, after four weeks, N = no control
[7] = rate 0.5 (head prints ppm, head line ends mg/pot), wheat, soil infested with Ggt, after four weeks, N = no control

IC50 [1]	SMILES	inhibition at 0.1 ppm [1, 2]	inhibition at 1 ppm [1, 3]	inhibition at 10 ppm [1, 4]	pest or weed control at 0.02 mg/pot (Ggt; [5])	pest or weed control at 0.1 mg/pot (Ggt; [6])	pest or weed control at 0.5 mg/pot (Ggt; [7])	inhibition at 0.1 ppm [1]	inhibition at 1 ppm [1]	inhibition at 10 ppm [1]	pest or weed control at 0.02 mg/pot (Ggt; soil)	pest or weed control at 0.1 mg/pot (Ggt; soil)	pest or weed control at 0.5 mg/pot (Ggt; soil)
8.5 ng/mL (≈ 0.0299 µM)	CCCNC(=O)c1c(NC(C)(C)C)ccc2ccccc12 [Example 21, N-propyl 2-[(1,1-dimethylethyl)amino]-1-naphthamide]	95%	97%	97%	35%	60%	78%						
9.18 ng/mL (≈ 0.0323 µM)	CCNC(=O)c1c(NC(C)(C)CC)ccc2ccccc12 [Example 22, N-ethyl 2-[(1,1-dimethylpropyl)amino]-1-naphthamide]	95%	98%	98%	11%	41%	70%						
6.62 ng/mL (≈ 0.0222 µM)	CCNC(=O)c1c(NC(C)(CC)CC)ccc2ccccc12 [Example 23, N-ethyl 2-[(1,1-diethylethyl)amino]-1-naphthamide]	21%	21%	43%	50%	65%	85%						
0.814 ng/mL (≈ 0.00261 µM)	CCCNC(=O)c1c(NC(C)(CC)CC)ccc2ccccc12 [Example 24, N-propyl 2-[(1,1-diethylethyl)amino]-1-naphthamide]	95%	95%	100%	32%	38%	76%						
1 ng/mL (≈ 0.00335 µM)	CCCNC(=O)c1c(NC(C)(C)CC)ccc2ccccc12 [Example 25, N-propyl 2-[(1,1-dimethylpropyl)amino]-1-naphthamide]	95%	100%	100%	17%	57%	78%						
	CCNC(=O)c1c(OC(C)(CC)CC)ccc2ccccc12 [Example 28, N-ethyl 2-[(1,1-diethylethyl)oxy]-1-naphthamide]	74%	96%	96%	19%	40%	78%						
	CCCNC(=O)c1c(OC(C)(CC)CC)ccc2ccccc12 [Example 31, N-propyl 2-[(1,1-diethylethyl)oxy]-1-naphthamide]	7%	17%	98%	0%	0%	3%						
42.2 ng/mL (≈ 0.135 µM)	CCNC(=O)c1c(OC(CC)(CC)CC)ccc2ccccc12 [Example 32, N-ethyl 2-[(1,1-diethylpropyl)oxy]-1-naphthamide]	87%	97%	97%	15%	35%	58%						
6.47 ng/mL (≈ 0.0199 µM)	C=CCNC(=O)c1c(OC(CC)(CC)CC)ccc2ccccc12 [Example 33, N-allyl 2-[(1,1-diethylpropyl)oxy]-1-naphthamide]	97%	100%	100%	19%	45%	59%						
	CCCN(CCC)C(=O)c1c(OC(CC)(CC)CC)ccc2ccccc12 [Example 35, N,N-dipropyl 2-[(1,1-diethylpropyl)oxy]-1-naphthamide]	0%	19%	95%	0%	0%	1%						
	CCNC(=O)c1c(OC2(C)CCCC2)ccc2ccccc12 [Example 36, N-ethyl 2-[(1-methyl-1-cyclopentyl)oxy]-1-naphthamide]	76%	98%	100%	0%	0%	60%						
	C=CCNC(=O)c1c(OC2(C)CCCCC2)ccc2ccccc12 [Example 39, N-allyl 2-[(1-methyl-1-cyclohexyl)oxy]-1-naphthamide]	57%	96%	96%	0%	11%	28%						
	CCNC(=O)c1c([Si](C)(C)C)ccc2sccc12 [Example 41, N-ethyl 5-trimethylsilyl benzothiophene-4-carboxamide]							98%	98%	100%	75%	99%	100%
	CCNC(=O)c1c([Si](C)(C)C)ccc2occc12 [Example 42, N-ethyl 5-trimethylsilyl benzofuran-4-carboxamide]							90%	98%	100%	68%	87%	91%
	CCNC(=O)c1c([Si](C)(C)C)ccc2ccsc12 [Example 43, N-ethyl 6-trimethylsilyl benzothiophene-7-carboxamide]							98%	100%	100%	50%	79%	88%
